Measured values published in ChEMBL document CHEMBL1201862, “PubChem BioAssay data set” (2004).
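Tested at 5 concentrations; 48 h exposure; 96-well plates; endpoints linearly interpolated, else capped at highest concentration. Here, GI50 denotes the concentration required for 50% inhibition of growth.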 Activity calls are given as the source filed them. Cut-off read from the data, not from the text of the source: active = GI50 up to about 1.1 µM and inactive = higher.

Key:
Test in all cases: NCI-60 cell line screen, 48 h
MDA-MB-435 = system: MDA-MB-435
SF-295 = system: SF-295
NCI-H23 = system: NCI-H23
OVCAR-3 = system: OVCAR-3
OVCAR-4 = system: OVCAR-4
SK-MEL-5 = system: SK-MEL-5
EKVX = system: EKVX
MOLT-4 = system: MOLT-4
HT-29 = system: HT-29
ACHN = system: ACHN
MDA-MB-231 = system: MDA-MB-231
NCI-H460 = system: NCI-H460
HCT-116 = system: HCT-116
SF-268 = system: SF-268
LOX IMVI = system: LOX IMVI
DU-145 = system: DU-145
T47D = system: T47D
HCT-15 = system: HCT-15
NCI/ADR-RES = system: NCI/ADR-RES
HL-60 = system: HL-60
U-251 = system: U-251
786-0 = system: 786-0
Malme-3M = system: Malme-3M
A498 = system: A498
UO-31 = system: UO-31
OVCAR-5 = system: OVCAR-5
NCI-H522 = system: NCI-H522
OVCAR-8 = system: OVCAR-8
CCRF-CEM = system: CCRF-CEM
MDA-N = system: MDA-N
SF-539 = system: SF-539
K562 = system: K562
A549 = system: A549
HOP-92 = system: HOP-92
IGROV-1 = system: IGROV-1
PC-3 = system: PC-3
SK-MEL-28 = system: SK-MEL-28
SR = system: SR
MCF7 = system: MCF7
RPMI-8226 = system: RPMI-8226
SK-MEL-2 = system: SK-MEL-2
TK-10 = system: TK-10
HCC 2998 = system: HCC 2998
SW-620 = system: SW-620
Hs-578T = system: Hs-578T
M14 = system: M14
SNB-19 = system: SNB-19
UACC-257 = system: UACC-257
HOP-62 = system: HOP-62
RXF 393 = system: RXF 393
CAKI-1 = system: CAKI-1
SK-OV-3 = system: SK-OV-3
SNB-75 = system: SNB-75
SN12C = system: SN12C
UACC-62 = system: UACC-62
NCI-H226 = system: NCI-H226
KM12 = system: KM12
COLO 205 = system: COLO 205

Cc1ccc2c(c1)CC1(Cc3cc(C)ccc3C1=O)C2=O
GI50 (MDA-MB-435): > 100 µM (inactive)
GI50 (SF-295): > 100 µM (inactive)
GI50 (NCI-H23): > 100 µM (inactive)
GI50 (OVCAR-3): > 100 µM (inactive)
GI50 (OVCAR-4): > 100 µM (inactive)
GI50 (SK-MEL-5): > 100 µM (inactive)
GI50 (EKVX): > 100 µM (inactive)
GI50 (MOLT-4): > 100 µM (inactive)
GI50 (HT-29): > 100 µM (inactive)
GI50 (ACHN): > 100 µM (inactive)
GI50 (MDA-MB-231): > 100 µM (inactive)
GI50 (NCI-H460): > 100 µM (inactive)
GI50 (HCT-116): > 100 µM (inactive)
GI50 (SF-268): > 100 µM (inactive)
GI50 (LOX IMVI): > 100 µM (inactive)
GI50 (DU-145): > 100 µM (inactive)
GI50 (T47D): > 100 µM (inactive)
GI50 (HCT-15): > 100 µM
GI50 (NCI/ADR-RES): > 100 µM (inactive)
GI50 (HL-60): > 100 µM (inactive)
GI50 (U-251): > 100 µM (inactive)
GI50 (786-0): > 100 µM (inactive)
GI50 (Malme-3M): > 100 µM (inactive)
GI50 (A498): > 100 µM (inactive)
GI50 (UO-31): > 100 µM (inactive)
GI50 (OVCAR-5): > 100 µM (inactive)
GI50 (NCI-H522): > 100 µM (inactive)
GI50 (OVCAR-8): > 100 µM (inactive)
GI50 (CCRF-CEM): > 100 µM (inactive)
GI50 (MDA-N): > 100 µM (inactive)
GI50 (SF-539): > 100 µM (inactive)
GI50 (K562): > 100 µM (inactive)
GI50 (A549): > 100 µM (inactive)
GI50 (HOP-92): > 100 µM (inactive)
GI50 (IGROV-1): > 100 µM (inactive)
GI50 (PC-3): > 100 µM (inactive)
GI50 (SK-MEL-28): > 100 µM (inactive)
GI50 (SR): > 100 µM (inactive)
GI50 (MCF7): > 100 µM (inactive)
GI50 (RPMI-8226): > 100 µM (inactive)
GI50 (SK-MEL-2): > 100 µM (inactive)
GI50 (TK-10): > 100 µM (inactive)
GI50 (HCC 2998): > 100 µM (inactive)
GI50 (SW-620): > 100 µM (inactive)
GI50 (Hs-578T): > 100 µM (inactive)
GI50 (M14): > 100 µM (inactive)
GI50 (SNB-19): > 100 µM (inactive)
GI50 (UACC-257): > 100 µM (inactive)
GI50 (HOP-62): > 100 µM (inactive)
GI50 (RXF 393): > 100 µM (inactive)
GI50 (CAKI-1): > 100 µM (inactive)
GI50 (SK-OV-3): > 100 µM (inactive)
GI50 (SNB-75): > 100 µM (inactive)

CCOC(=O)C(=Cn1c(=S)[nH]c2ccc([N+](=O)[O-])cc21)C(=O)OCC
GI50 (MDA-MB-435): > 100 µM (inactive)
GI50 (SF-295): > 100 µM (inactive)
GI50 (SN12C): > 100 µM (inactive)
GI50 (NCI-H23): > 100 µM (inactive)
GI50 (OVCAR-3): > 100 µM (inactive)
GI50 (OVCAR-4): > 100 µM (inactive)
GI50 (SK-MEL-5): > 100 µM (inactive)
GI50 (UACC-62): > 100 µM (inactive)
GI50 (EKVX): > 100 µM (inactive)
GI50 (MOLT-4): > 100 µM (inactive)
GI50 (HT-29): > 100 µM (inactive)
GI50 (ACHN): > 100 µM (inactive)
GI50 (MDA-MB-231): > 100 µM (inactive)
GI50 (NCI-H460): > 100 µM (inactive)
GI50 (HCT-116): > 100 µM (inactive)
GI50 (NCI-H226): 39.8 µM (inactive)
GI50 (SF-268): > 100 µM (inactive)
GI50 (LOX IMVI): > 100 µM (inactive)
GI50 (DU-145): > 100 µM (inactive)
GI50 (T47D): 59.6 µM (inactive)
GI50 (NCI/ADR-RES): > 100 µM (inactive)
GI50 (HL-60): > 100 µM (inactive)
GI50 (U-251): > 100 µM (inactive)
GI50 (786-0): > 100 µM (inactive)
GI50 (Malme-3M): > 100 µM (inactive)
GI50 (A498): > 100 µM (inactive)
GI50 (UO-31): 87.9 µM (inactive)
GI50 (OVCAR-5): > 100 µM (inactive)
GI50 (NCI-H522): > 100 µM (inactive)
GI50 (OVCAR-8): > 100 µM (inactive)
GI50 (CCRF-CEM): > 100 µM (inactive)
GI50 (MDA-N): > 100 µM (inactive)
GI50 (SF-539): > 100 µM (inactive)
GI50 (K562): > 100 µM (inactive)
GI50 (A549): > 100 µM (inactive)
GI50 (HOP-92): > 100 µM (inactive)
GI50 (IGROV-1): > 100 µM (inactive)
GI50 (PC-3): > 100 µM (inactive)
GI50 (SK-MEL-28): > 100 µM (inactive)
GI50 (SR): > 100 µM (inactive)
GI50 (MCF7): > 100 µM (inactive)
GI50 (KM12): > 100 µM (inactive)
GI50 (RPMI-8226): > 100 µM (inactive)
GI50 (SK-MEL-2): > 100 µM (inactive)
GI50 (TK-10): > 100 µM (inactive)
GI50 (HCC 2998): > 100 µM (inactive)
GI50 (SW-620): > 100 µM (inactive)
GI50 (Hs-578T): 90.4 µM (inactive)
GI50 (M14): > 100 µM (inactive)
GI50 (SNB-19): > 100 µM (inactive)
GI50 (UACC-257): > 100 µM (inactive)
GI50 (COLO 205): > 100 µM (inactive)
GI50 (HOP-62): > 100 µM (inactive)
GI50 (RXF 393): > 100 µM (inactive)
GI50 (CAKI-1): > 100 µM (inactive)
GI50 (SK-OV-3): > 100 µM (inactive)
GI50 (SNB-75): 47.9 µM (inactive)
